Measurements as given in patent publication US5300433A, “Methods for the inactivation of viruses in viral-contaminated pharmaceutical compositions” (Rhone-Poulenc Rorer Pharmaceuticals Inc., priority 1991, dated 1994).
Read-outs that look alike come from different tables or passages of the source.

What was measured:
HIV [1] = conditions: initial titer 9 log10
Protocol: A virus stock concentrate was prepared by infecting (CEM) cells at a multiplicity of infection of approximately 1. The cultures were established in 490 cm^2 Corning roller bottles containing approximately 450 ml of RPMI 1640 medium sufficient as is supplemented with 10% fetal bovine serum, penicillin, streptomycin, and 0.002 mg/ml polybrene. […] The total volume of the cultures was 1800 ml. […] The cultures were filtered through a 1.2 uM cellulose acetate filter. Virus was pelleted from the filtrate by centrifugation at 61,000×g for 4 hours at 4° C. The pelleted virus was resuspended with PBS (phosphate buffered saline solution).
Samples A, B and C were allowed to stand for 1 hour at 4° C. and sample D was allowed to stand for 1 hour at 25° C. Each sample was then centrifuged at 105,000×g for 90 minutes. The pellets were resuspended in 1 ml PBS and assayed for HIV by direct observation of the cytopathic effects of the virus on CEM cells. The assay method used in this example inherently rounds off titer to the nearest 0.5 log increment.

HIV [2] = system: HIV; parameters: species or system Human Immunodeficiency Virus
Excerpt: The Factor IX solution obtained is further contacted with HIV virus to obtain a final titer of 8-9 log10 of virus. […]. The solution is then dialyzed to remove the chemical disinfectant and then filtered through a membrane with an effective porosity equivalent to 100 KD molecular weight cut off.

[3] = system: Factor IX - deficient plasma; experiment: Factor IX activity by degree of correction in APTT time of Factor IX-deficient plasma; type: biochemical, human
Protocol: A purified Factor IX was obtained from PROTHAR® by chromatography on a monoclonal antibody affinity matrix specific to Factor IX. It contained approximately 0.065 milligrams of protein and 8 units of Factor IX activity per milliliter of solution. The purified preparation was ultrafiltered using an Amicon XM300 membrane and pressure of 5 p.s.i. The ultrafiltration proceeded very rapidly (about 2.5 ml/min). The filtrate was subsequently re-filtered through an Amicon XM100 membrane. The Factor IX activity in the final ultrafiltrate was 67%. Losses were not the result of Factor IX inactivation since specific activity was unaltered.
The product covered by this registered trademark of Armour Pharmaceutical is a stable lyophilized concentrate of human Factors II, VII, IX and X. It is prepared from pooled human plasma. Upon reconstitution it is a concentrated protein solution containing approximately 18 milligrams of total protein and 33 units of Factor IX activity per milliliter. The specific activity of Factor IX in the product ranges from 0 8-2.0 units per milligram of total protein.
In the first run, PROTHAR® was diluted 1:1 with 0.05M Tris-HCL, pH8.0. The resultant solution was ultrafiltered through an Amicon XM100 membrane (molecular weight cut-off of 100 K Daltons) using a pressure of 15 p.s.i. The ultrafiltration proceeded very slowly (about 0.25 ml/min), and the flow rate slowed as the protein inside the stirred cell became more concentrated. Only about 1% of the Factor IX activity found in the starting material appeared in the ultrafiltrate. […] Factor IX activity, in this and all other instances, is assayed by determining the degree of correction in APTT time of Factor IX - deficient plasma. J. H. Lenahan, Phillips and Phillips, Clin. Chem., Vol. 12, page 269 (1966).
Subsequent experiments were performed using an Amicon XM300 membrane (molecular weight cut-off of 300 K Daltons), pressures of 5 p.s.i., and reconstituted PROTHAR® dilutions of 1:6 and 1:10. Only about 17-19% of the Factor IX activity was found in the ultrafiltrate.

Compound | TOTAL LOG10 ID50 (found) (HIV [1]; Sample A: final NaSCN 1.5, 1 hour, 4° C.) [LOG10 ID50] | TOTAL LOG10 ID50 (found) (HIV [1]; Sample B: final NaSCN 2.0, 1 hour, 4° C.) [LOG10 ID50] | TOTAL LOG10 ID50 (found) (HIV [1]; Sample C: final NaSCN 3.0, no buffer, 1 hour, 4° C.) [LOG10 ID50] | TOTAL LOG10 ID50 (found) (HIV [1]; Sample D: final NaSCN 2.0, 1 hour, 25° C.) [LOG10 ID50] | titer of HIV infectivity (HIV [2]) | F.IX recovered ([3]; Example 5, 100 KD molecular weight cut-off filtration) | Factor IX activity recovered ([3]; Example 6, dialysis and 100 KD cut-off filtration) | specific activity after ultrafiltration ([3]; affinity-purified Factor IX, XM300 then XM100 membrane) | Factor IX activity in the final ultrafiltrate ([3]; affinity-purified Factor IX, XM300 then XM100 membrane, 5 p.s.i.) [%] | active Factor IX content, of the initial value ([3]; after 0.1% tri(n-butyl)phosphate and 1% Tween 80) [%] | specific activity ([3]; pre-purified by chromatography on a monoclonal antibody affinity matrix) | Factor IX activity per milliliter of solution ([3]; purified Factor IX, approximately 0.065 milligrams of protein per milliliter) [units per milliliter] | HIV titer after dialysis and filtration (HIV [2]; 100 KD cut-off membrane, after NaSCN treatment)
N#CS [NaSCN, sodium thiocyanate] | 1.0 | 1.0 | 1.0 | 1.0 | undetectable levels | – | – | – | – | – | – | – | –
Factor IX: purified Factor IX obtained from PROTHAR by chromatography on a monoclonal antibody affinity matrix specific to Factor IX | – | – | – | – | – | 80-100% | 80-100% | unaltered | 67 | > 80 | ≤ 190 units/mg of protein | ~8 | further reduced
